Target: T1, CXCR4 receptors (Homo sapiens, UniProt P61073)
T1 construct: expressing endogenous CXCR4 receptors; endogenous in cells; host or cells: CCRF-CEM (human T lymphoblast cells)
Experiment: CXCR4-CEM calcium flux assay, antagonist mode (inhibition of SDF-1α-induced calcium flux)
Format: cell-based
Settings: inhibition of calcium flux induced by 4 nM SDF-1α in CCRF-CEM cells
Summary of the method: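 CCRF-CEM cells were preincubated with compound (0.5% DMSO) for 25 min at room temperature, then stimulated with 4 nM SDF-1α. The resulting calcium flux was recorded by FDSS for 90 sec. Percent inhibition was calculated against an internal control compound, and background-corrected EC50 values were derived.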

T1 sequence (P61073 whole entry): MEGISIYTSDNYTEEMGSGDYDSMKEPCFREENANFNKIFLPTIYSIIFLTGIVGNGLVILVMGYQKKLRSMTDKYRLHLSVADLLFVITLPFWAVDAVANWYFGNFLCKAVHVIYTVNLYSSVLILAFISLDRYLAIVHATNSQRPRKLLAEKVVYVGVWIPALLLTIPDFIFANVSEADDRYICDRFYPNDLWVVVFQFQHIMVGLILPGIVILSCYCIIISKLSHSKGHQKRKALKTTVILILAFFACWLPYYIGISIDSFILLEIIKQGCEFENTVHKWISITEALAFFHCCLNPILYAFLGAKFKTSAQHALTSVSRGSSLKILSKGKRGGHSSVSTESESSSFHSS

How did the IC50 turn out when “(8S)-N-((5-(3-(dimethylamino)pyrrolidin- 1-yl)imidazo[1,2-c]pyrimidin-2- yl)methyl)-N-methyl-5,6,7,8- tetrahydroquinolin-8-amine [Example 75]” was run?
The IC50 was 11 nM.
